Article PMC5516028, “Molecular tools for GABAA receptors: High affinity ligands for β1-containing subtypes” (Scientific Reports, 2017)
Where “and” joins values, the source holds several entries; their conditions need not be identical. Identical values can stand only once. Like-named read-outs stand apart in the source and are kept apart here.

Assays:
Assay type in all cases: cell-based
α3β3 GABAA receptors = biological target: T1, α3β3 GABAA receptors (Rattus norvegicus, UniProt P20236+P63079); assay: Two electrode voltage clamp in Xenopus laevis oocytes, α3β3
T1 construct: expressed in transfected cells; host or cells: Xenopus laevis oocytes, mRNA injected
T1 sequence (P20236 29-493): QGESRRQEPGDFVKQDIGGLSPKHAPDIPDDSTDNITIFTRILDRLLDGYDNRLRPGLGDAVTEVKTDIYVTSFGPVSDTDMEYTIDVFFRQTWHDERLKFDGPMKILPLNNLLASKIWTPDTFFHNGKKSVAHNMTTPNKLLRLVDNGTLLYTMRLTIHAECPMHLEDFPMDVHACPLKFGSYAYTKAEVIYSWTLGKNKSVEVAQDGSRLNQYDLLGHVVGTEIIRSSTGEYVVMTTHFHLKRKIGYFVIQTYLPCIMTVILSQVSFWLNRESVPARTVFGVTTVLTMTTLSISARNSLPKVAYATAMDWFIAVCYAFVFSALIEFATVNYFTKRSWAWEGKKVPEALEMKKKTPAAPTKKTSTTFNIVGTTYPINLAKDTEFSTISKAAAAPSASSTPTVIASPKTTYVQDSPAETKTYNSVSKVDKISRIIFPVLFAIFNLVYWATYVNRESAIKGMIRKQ
T1 sequence (P63079 26-473): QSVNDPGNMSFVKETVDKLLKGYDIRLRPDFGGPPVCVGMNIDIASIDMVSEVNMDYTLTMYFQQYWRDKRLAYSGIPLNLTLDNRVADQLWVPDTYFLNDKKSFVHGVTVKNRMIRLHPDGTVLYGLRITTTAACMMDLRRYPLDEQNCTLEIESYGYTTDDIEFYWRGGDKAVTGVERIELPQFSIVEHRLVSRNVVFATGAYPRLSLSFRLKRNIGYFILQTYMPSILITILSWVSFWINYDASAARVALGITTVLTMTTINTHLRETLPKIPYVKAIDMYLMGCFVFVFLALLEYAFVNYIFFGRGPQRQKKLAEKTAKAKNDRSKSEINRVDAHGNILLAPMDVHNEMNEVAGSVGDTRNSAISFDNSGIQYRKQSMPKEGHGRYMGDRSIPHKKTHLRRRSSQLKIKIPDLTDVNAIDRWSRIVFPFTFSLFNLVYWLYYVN
Description: (§1) cDNA’s of rat GABAA receptor subunits α1, α4, β1, β2, β3 and γ2S were cloned as described. cDNAs of the rat subunits α2, α3 and α5 were gifts from P. Malherbe, that of α6 and γ1 were gifts of P. Seeburg and that of δ was a gift of C. Czajkowski. The mutants were constructed using the Q5 Site-Directed Mutagenesis Kit (New England Biolabs) following manufacturer’s instruction. We used the wild-type rat β3-pCI vector as template and the primers […] and […] resulting in a substitution of amino acid N41 (AAC) to R (AGG). We used the wild-type rat β1-pCI vector as template and the primers […] and […] resulting in a substitution of amino acid R41 (CGG) to N (AAC). The mutated subunits were confirmed by sequencing.
(§2) In vitro transcription of mRNA was based on the cDNA expression vectors encoding for rat GABAA receptor subunits α1–6, β1-3, γ1,2, δ and the two β mutants (β1R41N and β3N41R)[40]. After linearizing the cDNA vectors with appropriate restriction endonucleases, the cDNA was purified and concentrated with the DNA Clean and Contentrator ^TM Kit (Zymoresearch, Catalog No. D4005). Capped transcripts of the purified cDNA were produced using the mMESSAGE mMACHINE® T7 transcription kit (Ambion, TX, USA) and polyadenylated using the Ambion PolyA tailing kit (Ambion). After transcription and polyadenylation the RNA was purified with the MEGAclear ^TM Kit (Ambion, Catalog No. AM1908). The final RNA concentration was measured on NanoDrop® ND-1000 and finally diluted and stored in diethylpyrocarbonate-treated water at −80 °C. For the microinjection, the RNA of αβ receptor combinations was mixed at 1:1 ratio (which leads to αβ receptors that consist of predominantly 3 beta and 2 alpha subunits[27]), for αkβlγm (k = 1–3, l = 1, 3, m = 1, 2) receptors at 1:1:5 ratio, for αkβ3γ2 (k = 4–6) and αkβlδ (k = 1, 4 and 6, l = 1, 3) receptor combinations at 3:1:5 ratio.
(§3) Mature female Xenopus laevis (Nasco, WI) were anesthetized in a bath of ice-cold 0.17% Tricain (Ethyl-m-aminobenzoate, Sigma, MO) before decapitation in full accordance with all rules of the Austrian animal protection law (see http://www.ris.bka.gv.at/Dokumente/BgblAuth/BGBLA_2012_I_114/BGBLA_2012_I_114.pdf) and the Austrian animal experiment by-laws (see https://www.ris.bka.gv.at/Dokumente/BgblAuth/BGBLA_2012_II_522/BGBLA_2012_II_522.pdf) which implement the European Directive 2010/63/EU (see http://eur-lex.europa.eu/LexUriServ/LexUriServ.do?uri=OJ:L:2010:276:0033:0079:en:PDF) into the Austrian law (all information accessed on July 27, 2016). The frog’s ovaries were transferred to ND96 medium (96 mM NaCl, 2 mM KCl, 1 mM MgCl2, 5 mM HEPES; pH 7.5). Stage 5–6 oocytes with the follicle cell layer around them were roughly dissected with forceps into packages of 10–15 cells and washed in Ca^2+-free ND96 medium. Cells were then digested with collagenase (type IA, Sigma, NO, 1 mg/mL ND96) at 18 °C shaking at 30 rpm for 30–60 minutes and gently defolliculated with the aid of a glass pipette with appropriate tip diameter and a platinum loop. Defolliculated cells were stored at 18 °C for at least 6 hours in ND96 solution containing penicillin G (10000 IU/100 mL) and streptomycin (10 mg/100 mL) in order to preselect and exclude damaged cells from further treatment. Healthy defolliculated oocytes were injected with an aqueous solution of mRNA. A total of 4.5 ng of mRNA per oocyte was injected with a Nanoject II (Drummond). After injection of mRNA, oocytes were incubated at 18 °C (ND96 + antibiotic) for 2–3 days for αβ receptors and for 3–4 days for αβγ or αβδ receptors before recording. When cells were measured at later time points, oocytes were stored at +4 °C instead of 18 °C.
(§4) For electrophysiological recordings, oocytes were placed on a nylon-grid in a bath of Ca^2+-containing NDE solution medium [96 mM NaCl, 5 mM HEPES-NaOH (pH 7.5), 2 mM KCl, 1 mM MgCl2, 1.8 mM CaCl2].

α5β3γ2 GABAA receptors = biological target: T2, α5β3γ2 GABAA receptors (Rattus norvegicus, UniProt P19969+P63079); assay: Two electrode voltage clamp in Xenopus laevis oocytes, α5β3γ2
T2 construct: expressed in transfected cells; host or cells: Xenopus laevis oocytes, mRNA injected
T2 sequence (P19969 32-464 limits assumed): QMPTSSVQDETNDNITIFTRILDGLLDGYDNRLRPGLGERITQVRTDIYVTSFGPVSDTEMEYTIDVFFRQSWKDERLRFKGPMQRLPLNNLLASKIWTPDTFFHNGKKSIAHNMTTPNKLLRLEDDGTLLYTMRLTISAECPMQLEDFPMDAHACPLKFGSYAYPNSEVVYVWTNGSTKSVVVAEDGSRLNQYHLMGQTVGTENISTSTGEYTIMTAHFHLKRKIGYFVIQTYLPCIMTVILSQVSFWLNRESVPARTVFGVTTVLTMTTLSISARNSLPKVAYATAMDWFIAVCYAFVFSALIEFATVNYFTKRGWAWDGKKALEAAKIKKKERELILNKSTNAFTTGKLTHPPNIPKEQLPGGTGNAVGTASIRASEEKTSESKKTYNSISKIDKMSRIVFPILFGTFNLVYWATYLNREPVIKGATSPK
T2 sequence (P63079 26-473): as the sequence (P63079 26-473) above
T2 sequence (P18508 39-466 partner): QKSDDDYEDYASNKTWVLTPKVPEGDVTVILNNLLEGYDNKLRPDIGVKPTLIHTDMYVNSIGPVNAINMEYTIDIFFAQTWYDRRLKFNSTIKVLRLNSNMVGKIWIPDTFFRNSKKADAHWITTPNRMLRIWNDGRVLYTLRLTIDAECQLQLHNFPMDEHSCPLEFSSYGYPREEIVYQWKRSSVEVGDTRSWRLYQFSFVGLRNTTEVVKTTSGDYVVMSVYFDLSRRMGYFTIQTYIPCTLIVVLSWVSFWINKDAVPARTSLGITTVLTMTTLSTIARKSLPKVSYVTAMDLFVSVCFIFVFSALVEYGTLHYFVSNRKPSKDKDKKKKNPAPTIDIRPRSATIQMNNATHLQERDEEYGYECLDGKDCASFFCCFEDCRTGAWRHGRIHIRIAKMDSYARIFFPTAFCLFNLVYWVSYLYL
Description: as §1, §2, §3, §4

α6β3γ2 GABAA receptors = biological target: T3, α6β3γ2 GABAA receptors (Rattus norvegicus, UniProt P30191+P63079); assay: Two electrode voltage clamp in Xenopus laevis oocytes, α6β3γ2
T3 construct: expressed in transfected cells; host or cells: Xenopus laevis oocytes, mRNA injected
T3 sequence (P30191 20-453): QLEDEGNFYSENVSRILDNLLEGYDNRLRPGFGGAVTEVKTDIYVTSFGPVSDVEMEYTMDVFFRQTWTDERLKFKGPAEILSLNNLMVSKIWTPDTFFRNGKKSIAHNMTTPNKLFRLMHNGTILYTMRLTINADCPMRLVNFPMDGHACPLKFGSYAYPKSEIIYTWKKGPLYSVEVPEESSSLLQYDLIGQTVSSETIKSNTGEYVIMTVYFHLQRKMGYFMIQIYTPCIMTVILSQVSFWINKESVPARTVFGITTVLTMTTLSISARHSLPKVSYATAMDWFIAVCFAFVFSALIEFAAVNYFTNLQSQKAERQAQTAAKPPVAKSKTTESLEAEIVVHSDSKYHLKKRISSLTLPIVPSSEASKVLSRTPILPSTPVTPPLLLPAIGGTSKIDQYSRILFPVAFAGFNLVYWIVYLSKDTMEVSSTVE
T3 sequence (P63079 26-473): as the sequence (P63079 26-473) above
T3 sequence (P18508 39-466 partner): as the sequence (P18508 39-466 partner) above
Description: as §1, §2, §3, §4

α1β3γ2 GABAA receptors = biological target: T4, α1β3γ2 GABAA receptors (Rattus norvegicus, UniProt P62813+P63079); assay: Two electrode voltage clamp in Xenopus laevis oocytes, α1β3γ2
T4 construct: expressed in transfected cells; host or cells: Xenopus laevis oocytes, mRNA injected
T4 sequence (P62813 28-455): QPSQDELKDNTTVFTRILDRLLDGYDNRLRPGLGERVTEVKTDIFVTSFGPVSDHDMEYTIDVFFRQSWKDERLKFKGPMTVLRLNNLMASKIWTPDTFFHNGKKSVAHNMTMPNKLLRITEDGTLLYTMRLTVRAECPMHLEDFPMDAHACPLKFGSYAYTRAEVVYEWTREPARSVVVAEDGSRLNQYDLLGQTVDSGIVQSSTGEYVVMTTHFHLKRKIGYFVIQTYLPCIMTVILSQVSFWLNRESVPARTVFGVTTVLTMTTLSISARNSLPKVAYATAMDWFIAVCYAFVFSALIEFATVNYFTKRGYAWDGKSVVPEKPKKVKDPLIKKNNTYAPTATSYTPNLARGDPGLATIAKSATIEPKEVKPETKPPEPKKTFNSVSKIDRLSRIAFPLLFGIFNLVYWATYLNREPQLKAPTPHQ
T4 sequence (P63079 26-473): as the sequence (P63079 26-473) above
T4 sequence (P18508 39-466 partner): as the sequence (P18508 39-466 partner) above
Description: as §1, §2, §3, §4

α3β3γ2 GABAA receptors = biological target: T5, α3β3γ2 GABAA receptors (Rattus norvegicus, UniProt P20236+P63079); assay: Two electrode voltage clamp in Xenopus laevis oocytes, α3β3γ2
T5 construct: expressed in transfected cells; host or cells: Xenopus laevis oocytes, mRNA injected
T5 sequence (P20236 29-493): as the sequence (P20236 29-493) above
T5 sequence (P63079 26-473): as the sequence (P63079 26-473) above
T5 sequence (P18508 39-466 partner): as the sequence (P18508 39-466 partner) above
Description: as §1, §2, §3, §4

α2β3 GABAA receptors = biological target: T6, α2β3 GABAA receptors (Rattus norvegicus, UniProt P23576+P63079); assay: Two electrode voltage clamp in Xenopus laevis oocytes, α2β3
T6 construct: expressed in transfected cells; host or cells: Xenopus laevis oocytes, mRNA injected
T6 sequence (P23576 29-451): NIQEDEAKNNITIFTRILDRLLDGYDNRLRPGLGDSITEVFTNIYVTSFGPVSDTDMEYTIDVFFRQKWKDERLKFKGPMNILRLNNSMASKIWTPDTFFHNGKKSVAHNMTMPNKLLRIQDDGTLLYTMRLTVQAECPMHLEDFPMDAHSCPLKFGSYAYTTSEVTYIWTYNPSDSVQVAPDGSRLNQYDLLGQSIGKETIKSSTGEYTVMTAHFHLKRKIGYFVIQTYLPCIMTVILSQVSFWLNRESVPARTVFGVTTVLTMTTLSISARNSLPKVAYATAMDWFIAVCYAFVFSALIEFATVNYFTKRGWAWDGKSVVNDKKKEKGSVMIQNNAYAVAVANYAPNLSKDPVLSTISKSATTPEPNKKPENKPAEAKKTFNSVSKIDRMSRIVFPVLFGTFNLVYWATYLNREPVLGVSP
T6 sequence (P63079 26-473): as the sequence (P63079 26-473) above
Description: as §1, §2, §3, §4

α5β3 GABAA receptors = biological target: T7, α5β3 GABAA receptors (Rattus norvegicus, UniProt P19969+P63079); assay: Two electrode voltage clamp in Xenopus laevis oocytes, α5β3; conditions: read-out: efficacy, % of control current (GABA EC3-5 = 100%), α5β3
T7 construct: expressed in transfected cells; host or cells: Xenopus laevis oocytes, mRNA injected
T7 sequence (P19969 32-464 limits assumed): as the sequence (P19969 32-464 limits assumed) above
T7 sequence (P63079 26-473): as the sequence (P63079 26-473) above
Description: as §1, §2, §3, §4

[1] = read-out: efficacy, % of control current (GABA EC3-5 = 100%), 1 nM
[2] = read-out: efficacy, % of control current (GABA EC3-5 = 100%), 10 nM
[3] = read-out: efficacy, % of control current (GABA EC3-5 = 100%), 100 nM
[4] = read-out: efficacy, % of control current (GABA EC3-5 = 100%), 1 µM
[5] = read-out: efficacy, % of control current (GABA EC3-5 = 100%), 10 µM
[6] = read-out: efficacy, % of control current (GABA EC3-5 = 100%), 300 nM
[7] = read-out: efficacy, % of control current (GABA EC3-5 = 100%), 30 µM

## Nc1ccc(-n2nc3c4cc(Cl)ccc4[nH]cc-3c2=O)cc1 [Compound 3, 8-Chloro-2-(4-aminophenyl)-2H-pyrazolo[4,3-c]quinolin-3(5H)-one]
α3β3 GABAA receptors
  EC50: 1.9 µM
α3β3 GABAA receptors; read-out: efficacy, % of control current (GABA EC3-5 = 100%), α3β3, 1 nM
  activity at 0.001 µM: 103 ± 3.1%
α3β3 GABAA receptors; read-out: efficacy, % of control current (GABA EC3-5 = 100%), α3β3, 1 µM
  activity at 1 µM: 144 ± 6.3%
α5β3γ2 GABAA receptors
  EC50: > 10 µM
α5β3γ2 GABAA receptors; read-out: efficacy, % of control current (GABA EC3-5 = 100%), α5β3γ2, 10 nM
  activity at 0.01 µM: 89.6 ± 3.1%
α5β3γ2 GABAA receptors; read-out: efficacy, % of control current (GABA EC3-5 = 100%), α5β3γ2, 100 nM
  activity at 0.1 µM: 83.6 ± 4.2%
α5β3γ2 GABAA receptors; read-out: efficacy, % of control current (GABA EC3-5 = 100%), α5β3γ2, 1 µM
  activity at 1 µM: 90.6 ± 5.1%
α5β3γ2 GABAA receptors; read-out: efficacy, % of control current (GABA EC3-5 = 100%), α5β3γ2, 10 µM
  activity at 10 µM: 52.8 ± 6.7%
α6β3γ2 GABAA receptors; co-applied with GABA EC3-5
  EC50: ~2 µM and 2.3 µM
α6β3γ2 GABAA receptors; [1]
  activity at 0.001 µM: 108 ± 5.9%
α6β3γ2 GABAA receptors; [2]
  activity at 0.01 µM: 120 ± 7.1%
α6β3γ2 GABAA receptors; [3]
  activity at 0.1 µM: 148 ± 8%
α6β3γ2 GABAA receptors; [4]
  activity at 1 µM: 250 ± 18.9%
α6β3γ2 GABAA receptors; [5]
  activity at 10 µM: 394 ± 35%
α1β3γ2 GABAA receptors; co-applied with GABA EC3-5, read-out: EC50
  EC50: ~1 µM
α1β3γ2 GABAA receptors; [1]
  activity at 0.001 µM: 100.8 ± 0.6%
α1β3γ2 GABAA receptors; [2]
  activity at 0.01 µM: 103 ± 1.4%
α1β3γ2 GABAA receptors; [6]
  activity at 0.3 µM: 120 ± 4.3%
α1β3γ2 GABAA receptors; [4]
  activity at 1 µM: 145 ± 3.7%
α1β3γ2 GABAA receptors; read-out: efficacy, % of control current (GABA EC3-5 = 100%), 3 µM
  activity at 3 µM: 197 ± 13.7%
α1β3γ2 GABAA receptors; [5]
  activity at 10 µM: 232 ± 7.5%
α1β3γ2 GABAA receptors; [7]
  activity at 30 µM: 137 ± 17.8%
α1β3γ2 GABAA receptors; read-out: maximum efficacy / modulatory effects up to
  Emax: ~200%
α1β3γ2 GABAA receptors; read-out: pEC50 (converted)
  EC50: 1.26 µM
α3β3γ2 GABAA receptors
  modulatory effects up to: ~ 200%
α3β3γ2 GABAA receptors; co-applied with GABA EC3-5
  EC50: ~1 µM and 1.2 µM
α3β3γ2 GABAA receptors; [1]
  activity at 0.001 µM: 100%
α3β3γ2 GABAA receptors; [2]
  activity at 0.01 µM: 101 ± 1%
α3β3γ2 GABAA receptors; [3]
  activity at 0.1 µM: 108 ± 3.7%
α3β3γ2 GABAA receptors; [6]
  activity at 0.3 µM: 104 ± 4%
α3β3γ2 GABAA receptors; [4]
  activity at 1 µM: 133 ± 4%
α3β3γ2 GABAA receptors; [5]
  activity at 10 µM: 202 ± 23%
α3β3γ2 GABAA receptors; [7]
  activity at 30 µM: 195%
α2β3 GABAA receptors; read-out: EC50
  EC50: 5.1 µM
α2β3 GABAA receptors; read-out: efficacy, % of control current (GABA EC3-5 = 100%), α2β3, 1 nM
  activity at 0.001 µM: 100 ± 0.1%
α2β3 GABAA receptors; read-out: efficacy, % of control current (GABA EC3-5 = 100%), α2β3, 100 nM
  activity at 0.1 µM: 102 ± 1.2%
α2β3 GABAA receptors; read-out: efficacy, % of control current (GABA EC3-5 = 100%), α2β3, 10 µM
  activity at 10 µM: 156 ± 9.7%
α5β3 GABAA receptors; 100 nM
  activity at 0.1 µM: 115 ± 8%
α5β3 GABAA receptors; 1 µM
  activity at 1 µM: 108 ± 4.7%
α5β3 GABAA receptors; 10 µM
  activity at 10 µM: 75.4 ± 6.4%
